Target: T1, human full-length MKNK1 (Homo sapiens, UniProt Q9BUB5, T385D)
T1 construct: purchased Carna Biosciences 02-145; host or cells: insect cells, baculovirus expression system
Assay: MKNK1 kinase high ATP assay (TR-FRET)
Format: biochemical
Details: high ATP (2 mM), 15 min preincubation with enzyme, GST-MKNK1 (T344D)
Method: MKNK1-inhibitory activity at high ATP of compounds of the present invention after their preincubation with MKNK1 was quantified employing the TR-FRET-based MKNK1 high ATP assay as described in the following paragraphs.
A recombinant fusion protein of Glutathione-S-Transferase (GST, N-terminally) and human full-length MKNK1 (amino acids 1-424 and T344D of accession number BAA 19885.1), expressed in insect cells using baculovirus expression system and purified via glutathione sepharose affinity chromatography, was purchased from Carna Biosciences (product no 02-145) and used as enzyme. As substrate for the kinase reaction the biotinylated peptide biotin-Ahx-IKKRKLTRRKSLKG (C-terminus in amide form) was used, which can be purchased e.g. from the company Biosyntan (Berlin-Buch, Germany).
For the assay 50 nL of a 100fold concentrated solution of the test compound in DMSO was pipetted into a black low volume 384well microtiter plate (Greiner Bio-One, Frickenhausen, Germany), 2 μL of a solution of MKNK1 in aqueous assay buffer [50 mM HEPES pH 7.5, 5 mM MgCl2, 1.0 mM dithiothreitol, 0.005% (v/v) Nonidet-P40 (Sigma)] was added and the mixture was incubated for 15 min at 22° C. to allow pre-binding of the test compounds to the enzyme before the start of the kinase reaction. Then the kinase reaction was started by the addition of 3 μL of a solution of adenosine-tri-phosphate (ATP, 3.3 mM=>final conc. in the 5 μL assay volume is 2 mM) and substrate (0.1 μM=>final conc. in the 5 μL assay volume is 0.06 μM) in assay buffer and the resulting mixture was incubated for a reaction time of 30 min at 22° C. The concentration of MKNK1 was adjusted depending of the activity of the enzyme lot and was chosen appropriate to have the assay in the linear range, typical concentrations were in the range of 0.003 μg/mL. The reaction was stopped by the addition of 5 μL of a solution of TR-FRET detection reagents (5 nM streptavidine-XL665 [Cisbio Bioassays, Codolet, France] and 1 nM anti-ribosomal protein […] (pSer236)-antibody from Invitrogen [#44921G] and 1 nM LANCE EU-W1024 labeled ProteinG [Perkin-Elmer, product no. AD0071]) in an aqueous EDTA-solution (100 mM EDTA, 0.1% (w/v) bovine serum albumin in 50 mM HEPES pH 7.5).
The resulting mixture was incubated for 1 h at 22° C. to allow the formation of complex between the phosphorylated biotinylated peptide and the detection reagents. Subsequently the amount of phosphorylated substrate was evaluated by measurement of the resonance energy transfer from the Eu-chelate to the streptavidine-XL. Therefore, the fluorescence emissions at 620 nm and 665 nm after excitation at 350 nm were measured in a TR-FRET reader, e.g. a Rubystar (BMG Labtechnologies, Offenburg, Germany) or a Viewlux (Perkin-Elmer). The ratio of the emissions at 665 nm and at […] was taken as the measure for the amount of phosphorylated substrate. The data were normalised (enzyme reaction without inhibitor=0% inhibition, all other assay components but no enzyme=100% inhibition).

T1 sequence (Q9BUB5 1-424 isoform Q9BUB5-2 T344D): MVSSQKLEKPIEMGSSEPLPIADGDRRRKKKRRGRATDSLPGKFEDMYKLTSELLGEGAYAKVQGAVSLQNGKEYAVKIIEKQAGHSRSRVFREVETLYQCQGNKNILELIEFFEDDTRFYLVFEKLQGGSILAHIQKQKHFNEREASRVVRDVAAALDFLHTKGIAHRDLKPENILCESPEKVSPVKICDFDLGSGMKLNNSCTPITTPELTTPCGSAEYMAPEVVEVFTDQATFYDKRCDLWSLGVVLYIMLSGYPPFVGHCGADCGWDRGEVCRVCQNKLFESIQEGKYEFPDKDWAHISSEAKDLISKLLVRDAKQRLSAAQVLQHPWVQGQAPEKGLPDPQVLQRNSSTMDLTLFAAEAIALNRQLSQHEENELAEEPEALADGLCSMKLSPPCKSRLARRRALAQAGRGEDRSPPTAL

Row | Structure (SMILES) | IC50 [nM]
1 | COc1ccc(Nc2ncnc3[nH]c4c(c23)CC(C(=O)NCCCS(C)(=O)=O)CC4)c(OC)c1 (racemic) [Example 73, (RS)-4-[(2,4-Dimethoxyphenyl)amino]-N-[3-(methylsulfonyl)propyl]-6,7,8,9-tetrahydro-5H-pyrimido[4,5-b]indole-6-carboxamide] | 4140
2 | COP(C)(=O)c1ccc(Nc2ncnc3[nH]c4c(c23)CC(C(=O)NCCCS(C)(=O)=O)CC4)cc1 (racemic) [Example 64, (RS)-Methyl methyl{4-[(6-{[3-(methylsulfonyl)propyl]carbamoyl}-6,7,8,9-tetrahydro-5H-pyrimido[4,5-b]indol-4-yl)amino]phenyl}phosphinate] | 19700
3 | O=C1OCCOc2cc(F)ccc2Nc2ncnc3[nH]c4c(c23)CC1CC4 (racemic) [Example 229, (RS)-11-Fluoro-1,3,4,7,8,14-hexahydro-5H-2,4-ethano-6,9-dioxa-1,14,15,17-tetraazabenzo[5,6]cyclotrideca[1,2,3-cd]inden-5-one] | 3540
4 | CC(C)NC(=O)C1CCc2[nH]c3ncnc(N4CCc5ccccc54)c3c2C1 (racemic) [Example 208, (RS)-4-(2,3-Dihydro-1H-indol-1-yl)-N-(propan-2-yl)-6,7,8,9-tetrahydro-5H-pyrimido[4,5-b]indole-6-carboxamide] | 2750
5 | COc1ccc(F)cc1Nc1ncnc2[nH]c3c(c12)CC(C(=O)NCCC(F)(F)F)CC3 (racemic) [Example 198, (RS)-4-[(5-Fluoro-2-methoxyphenyl)amino]-N-(3,3,3-trifluoropropyl)-6,7,8,9-tetrahydro-5H-pyrimido[4,5-b]indole-6-carboxamide] | 249
6 | CSc1cc2c(cc1Nc1ncnc3[nH]c4c(c13)CC(C(=O)NCCCS(C)(=O)=O)CC4)OCCO2 (racemic) [Example 65, (RS)-4-{[7-(Methylsulfanyl)-2,3-dihydro-1,4-benzodioxin-6-yl]amino}-N-[3-(methylsulfonyl)propyl]-6,7,8,9-tetrahydro-5H-pyrimido[4,5-b]indole-6-carboxamide] | 13300
7 | c1nc(Nc2ccc3[nH]ncc3c2)c2c3c([nH]c2n1)CCC3 [Example 69, N-(1H-Indazol-5-yl)-5,6,7,8-tetrahydrocyclopenta[4,5]pyrrolo[2,3-d]pyrimidin-4-amine] | 507
8 | COc1cc(F)ccc1Nc1ncnc2[nH]c3c(c12)CC(C(=O)NCCCS(C)(=O)=O)CC3 (racemic) [Example 37, (RS)-4-[(4-Fluoro-2-methoxyphenyl)amino]-N-[3-(methylsulfonyl)propyl]-6,7,8,9-tetrahydro-5H-pyrimido[4,5-b]indole-6-carboxamide] | 145
9 | CC(C)Oc1ccc(Cl)cc1Nc1ncnc2[nH]c3c(c12)CC(F)(F)CC3 [Example 143] | 407

Stronger by IC50, values ahead:

Row | IC50 [nM] | Structure (SMILES)
10 | 123 | COc1ccc(F)cc1Nc1ncnc2[nH]c3c(c12)CC(C(=O)NC(C)C)CC3 (racemic) [Example 195, (RS)-4-[(5-Fluoro-2-methoxyphenyl)amino]-N-(propan-2-yl)-6,7,8,9-tetrahydro-5H-pyrimido[4,5-b]indole-6-carboxamide]
11 | 19 | O=C(NC1CC1)C1CCc2[nH]c3ncnc(Nc4ccc5[nH]ncc5c4)c3c2C1 (racemic) [Example 15, (RS)—N—Cyclopropyl-4-(1H-indazol-5-ylamino)-6,7,8,9-tetrahydro-5H-pyrimido[4,5-b]indole-6-carboxamide]
12 | 89 | O=C(O)C1CCc2[nH]c3ncnc(Nc4ccc5[nH]ncc5c4)c3c2C1 (racemic) [Example 6, (RS)-4-(1H-Indazol-5-ylamino)-6,7,8,9-tetrahydro-5H-pyrimido[4,5-b]indole-6-carboxylic acid]
13 | 89 | c1ccc(OC2CCOCC2)c(Nc2ncnc3[nH]c4c(c23)CCCC4)c1 [Example 130, N-[2-(tetrahydro-2H-pyran-4-yloxy)phenyl]-6,7,8,9-tetrahydro-5H-pyrimido[4,5-b]indol-4-amine]

Reference: US20150133426A1, “SUBSTITUTED PYRROLOPYRIMIDINES” (BAYER PHARMA AKTIENGESELLSCHAFT, priority 2012, published 2015)
